PMC5701133, “Structural Mechanism of the Oxygenase JMJD6 Recognition by the Extraterminal (ET) Domain of BRD4” (Scientific Reports, 2017)

What was measured:
[1] = system: BRD4 and JMJD6 interaction; experiment: Co-immunoprecipitation with added nucleic acid: BRD4/JMJD6 association; assay type: binding; conditions: for association of Flag-BRD4WT with JMJD6 on addition of nucleic acid (in words): double-transfected Flag-BRD4 and His-JMJD6 HEK293T lysate, 1 μM ssRNA, dsDNA or ssDNA; for BRD4/JMJD6 association, endogenous and single-transfected IP, on addition of nucleic acid (in words): endogenous and single-transfected HEK293T IP experiments
Experimental: Incubate at 4 °C overnight.

JMJD6 = conditions: biochemical study; ref [21]; cited from earlier work

## ssDNA: 5′-TTTCTAGATCAGGAGCTGTCGGAAGCTATCC-3′; 31 nt (DNA, backbone not given here)
[1]
  association of Flag-BRD4WT with JMJD6 on addition of nucleic acid (in words): no improvements on JMJD6 interaction with BRD4
  BRD4/JMJD6 association, endogenous and single-transfected IP, on addition of nucleic acid (in words): no additional effect

## ssRNA: 5′-AUACGAUGCUUUACGGUGCUAUUUUGU-3′; 27 nt (RNA, backbone not given here)
[1]
  association of Flag-BRD4WT with JMJD6 on addition of nucleic acid (in words): appears much stronger
  BRD4/JMJD6 association, endogenous and single-transfected IP, on addition of nucleic acid (in words): no additional effect
JMJD6
  interaction with JMJD6 (in words): can interact
